Assay results as given in patent publication US9131692B2, “Antibacterial imidazolium compound and antibacterial photocurable thiol-ene compositions comprising the same, and antibacterial polymer coatins prepared therefrom” (Korea Institute of Science and Technology, priority 2013, dated 2015).
Structures can show the parent of a compound that is named as a salt.

How the values were obtained:
Assay type in all cases: cell-based
various strains = test: MIC test of imidazolium salt, overall statement; conditions: text summary of Table 7; compared with benzoalconium chloride (BKC)
[1] = tested on: Moraxella catanhalis (ATCC 25240); test: MIC test of imidazolium salt
[2] = tested on: Salmonella typhimurium (ATCC 1331); test: MIC test of imidazolium salt
[3] = tested on: Serratia marcescens (ATCC 27117); test: MIC test of imidazolium salt

In the case of `C=CCn1cc[n+](CCCCCCCCCCCC)c1` [ADIm(Br), 1-allyl-3-dodecylimidazolium salt], the “antibacterial activity over various strains” value (various strains) is reported as “very excellent antibacterial activity, similar to that of benzoalconium chloride (BKC)”, the “ADIm(Br) concentration at which strain has antibiosis” value (from here on “ADIm(Br) concentration”) [1] is reported as 1000 µg/mL and the “ADIm(Br) concentration” value [2] is reported as 1000 µg/mL. The “ADIm(Br) concentration” value [3] was 1000 µg/mL.
